Assay results reported in patent US20220273690A1, “Edible Formulations Based on Active Ingredients and Arginine” (GRAAL S.R.L., priority 2019, published 2022).
≈ marks a conversion by molar mass, not a printed value.

Assays:
[1] = Neutralization of an aqueous solution of SAM-e tosylate with buffering agents to pH 7; type: physicochemical; settings: for Stabilization time / Initial pH: SAMe tosylate 400 mg/100 mL; for Final pH: SAMe tosylate 400 mg/100 mL after addition of the neutralizing agent; for Initial pH: before addition of the neutralizing agent; for Neutralizing agents added amount: added to SAMe tosylate 400 mg/100 mL until neutralization
Experimental: (§1) After measuring the pH, the solution was gradually added with buffering substance until neutralization and a pH 7 value were reached. As it can be seen from the table below (Table 9), the amount of Lysine and Potassium Citrate tribasic appear to be excessive to consider their use in commercial pharmaceutical forms. More precisely, from the table it can be noted that 15.4 g of Lysine fail to bring the SAMe solution to neutralization (the pH value remains 4).
SAMe tosilate concentration: 400 mg/100 mL

[2] = cited from earlier work
[3] = Neutralization of aqueous solutions of other acid active ingredients with L-Arginine; type: physicochemical; settings: aqueous solution containing 1 g of the active ingredient
Text: as §1
Based on the excellent neutralization results obtained with L-Arginine, the same method was used to analyze the amount of L-Arginine necessary to neutralize a solution including other acid active ingredients (results below): • An aqueous solution containing 1 g of N-Acetyl-Cysteine is neutralized with 1.086 g of L-Arginine • An aqueous solution containing 1 g of L-Acetyl-Carnitine is neutralized with 0.736 g of L-Arginine

[4] = cited from earlier work; remark: listed apart in the source

SMILES	Final pH [1]	Initial pH [1]	Neutralizing agents added amount [1]	pKa [2]	Solubility in water [4]	other results
O=P([O-])([O-])[O-].[Na+].[Na+].[Na+] [Sodium phosphate tribasic]	7.0	2.09	510 mg			Stabilization time [1]: <3 min
O=C([O-])CC(O)(CC(=O)[O-])C(=O)[O-].[K+].[K+].[K+] [Potassium citrate tribasic]	7.0	2.10	14943 mg			Stabilization time [1]: <3 min
N[C@@H](CC(=O)O)C(=O)O [Aspartic Acid]				1.7		
N=C(N)NCCC[C@H](N)C(=O)O [Arginine]	7.0	2.08	375 mg			
O=C([O-])[O-].[Na+].[Na+] [Sodium carbonate]	7.0	2.10	200 mg			Stabilization time [1]: <3 min
NCCCC[C@H](N)C(=O)O [Lysine]	4	2.08	15402 mg			Amount of neutralizing agent added ([1]; SAMe solution, neutralization not reached): 15.4 g
CC(=O)O[C@H](CC(=O)[O-])C[N+](C)(C)C [L-Acetyl Carnitine]				4.09	142000 µg/mL (≈ 699 mM)	Amount of L-Arginine needed to neutralize [3]: 0.736 g
N[C@@H](CCC(=O)O)C(=O)O [Glutamic acid]				1.88		
C[N+](C)(C)C[C@H](O)CC(=O)[O-] [Levocarnitine]				4.2	5330 µg/mL (≈ 33.1 mM)	
C[S+](CC[C@H](N)C(=O)[O-])C[C@H]1O[C@@H](n2cnc3c(N)ncnc32)[C@H](O)[C@@H]1O (stereo partly drawn) [SAMe, S-Adenosyl-l-methionine]				1.7	1190 µg/mL (≈ 2.99 mM)	
O=C(O)CCCC[C@@H]1CCSS1 (racemic) [Lipoic acid]				4.52		
CC(=O)Oc1ccccc1C(=O)O [Acetylsalicylic acid]					1460 µg/mL (≈ 8.1 mM)	
[O]=[Mg] [Light magnesium oxide]	7.1	2.08	44.91 mg			
O=C1O[C@H]([C@@H](O)CO)C(O)=C1O [Ascorbic Acid]				4.36		
O=C([O-])O.[Na+] [Sodium bicarbonate]	7.0	2.08	690 mg			Stabilization time [1]: <3 min
CC(=O)SC[C@H](NC(=O)CC[C@H](N)C(=O)O)C(=O)NCC(=O)O [S-acetyl-L-glutatione]				1.75		
CC(C)(O)CC(=O)O [Hydroxy-methyl-butyrate, 3-hydroxy-3-methylbutyric acid]				4.4	15000 µg/mL (≈ 127 mM)	
CC(=O)N[C@@H](CS)C(=O)O [N-Acetyl Cysteine]					5090 µg/mL (≈ 31.2 mM)	Amount of L-Arginine needed to neutralize [3]: 1.086 g
